Bounds are passed on as bounds.

For the experiment, the system named is DLD-1 BRCA2(−/−) Cell. Kind of experiment: Cell viability assay (Resazurin) in DLD1-BRCA2 cells. The format is cell-based. Conditions: Homo sapiens, DLD-1, 336 h, 14 days, 1,500 cells/well, final DMSO 1%. The method, boiled down:
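DLD1-BRCA2 KG cells seeded at 1,500/well (parental 600/well) in RPMI-1640 with 10% FBS, compound added after 4 h (1% DMSO), media replaced every 3-4 days over 14 days at 37° C. Viability read by resazurin (0.1 mg/ml, 4 h) fluorescence at Ex/Em 560/590 nm; IC50 fitted.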
`Cc1cc(C(F)(F)F)cc(N2[C@H](C(=O)N(CC#Cc3nccc(N4CCOCC4)n3)c3ccc(F)c(C)c3)CCS2(=O)=O)n1` [Example 80, (S)-N-(4-fluoro-3-methylphenyl)-2-(6-methyl-4-(trifluoromethyl)pyridin-2-yl)-N-(3-(4-morpholinopyrimidin-2-yl)prop-2-yn-1-yl)isothiazolidine-3-carboxamide 1,1-dioxide] registered an IC50 of less than 1000 nM.

The compound `Cc1cc(C(F)(F)F)cc(N2[C@H](C(=O)N(CC#Cc3ncc(C(N)=O)cn3)c3ccc(F)c(C)c3)CCS2(=O)=O)n1` [Example 81, (S)-N-(3-(5-carbamoylpyrimidin-2-yl)prop-2-yn-1-yl)-N-(4-fluoro-3-methylphenyl)-2-(6-methyl-4-(trifluoromethyl)pyridin-2-yl)isothiazolidine-3-carboxamide 1,1-dioxide] displayed an IC50 of less than 1000 nM.

With `Cc1cc(C(F)(F)F)cc(N2[C@H](C(=O)N(CC#Cc3ncc(C(=O)N4CCOCC4)cn3)c3ccc(F)c(C)c3)CCS2(=O)=O)n1` [Example 82, (S)-N-(4-fluoro-3-methylphenyl)-2-(6-methyl-4-(trifluoromethyl)pyridin-2-yl)-N-(3-(5-(morpholine-4-carbonyl)pyrimidin-2-yl)prop-2-yn-1-yl)isothiazolidine-3-carboxamide 1,1-dioxide], the IC50 is less than 1000 nM.

In turn, `Cc1cc(C(F)(F)F)cc(N2[C@H](C(=O)N(CC#Cc3ncc(C(=O)N4C5CCC4COC5)cn3)c3ccc(F)c(C)c3)CCS2(=O)=O)n1` [Example 83, (3S)-N-(3-(5-(3-oxa-8-azabicyclo[3.2.1]octane-8-carbonyl)pyrimidin-2-yl)prop-2-yn-1-yl)-N-(4-fluoro-3-methylphenyl)-2-(6-methyl-4-(trifluoromethyl)pyridin-2-yl)isothiazolidine-3-carboxamide 1,1-dioxide] came in with an IC50 of less than 1000 nM.

Turning to `Cc1cc(C(F)(F)F)cc(N2[C@H](C(=O)N(CC#Cc3ccc(N4CCOCC4)cn3)c3ccc(F)c(C)c3)CCS2(=O)=O)n1` [Example 84, (S)-N-(4-fluoro-3-methylphenyl)-2-(6-methyl-4-(trifluoromethyl)pyridin-2-yl)-N-(3-(5-morpholinopyridin-2-yl)prop-2-yn-1-yl)isothiazolidine-3-carboxamide 1,1-dioxide], the IC50 was less than 1000 nM.

Take `Cc1cc(C(F)(F)F)cc(N2[C@H](C(=O)N(CC#Cc3ccc(N4CCOCC4)nc3)c3ccc(F)c(C)c3)CCS2(=O)=O)n1` [Example 85, (S)-N-(4-fluoro-3-methylphenyl)-2-(6-methyl-4-(trifluoromethyl)pyridin-2-yl)-N-(3-(6-morpholinopyridin-3-yl)prop-2-yn-1-yl)isothiazolidine-3-carboxamide 1,1-dioxide]: the IC50 was less than 1000 nM.

For the compound `Cc1cc(C(F)(F)F)cc(N2[C@H](C(=O)N(CC#Cc3cccc(N4CCOCC4)n3)c3ccc(F)c(C)c3)CCS2(=O)=O)n1` [Example 86, (S)-N-(4-fluoro-3-methylphenyl)-2-(6-methyl-4-(trifluoromethyl)pyridin-2-yl)-N-(3-(6-morpholinopyridin-2-yl)prop-2-yn-1-yl)isothiazolidine-3-carboxamide 1,1-dioxide], the IC50 was less than 1000 nM.

On to `Cc1cc(C(F)(F)F)cc(N2[C@H](C(=O)N(CC#Cc3cccc(=O)[nH]3)c3ccc(F)c(C)c3)CCS2(=O)=O)n1` [Example 87, (S)-N-(4-fluoro-3-methylphenyl)-2-(6-methyl-4-(trifluoromethyl)pyridin-2-yl)-N-(3-(6-oxo-1,6-dihydropyridin-2-yl)prop-2-yn-1-yl)isothiazolidine-3-carboxamide 1,1-dioxide], for which the IC50 is less than 1000 nM.

Compound `Cc1cc(C(F)(F)F)cc(N2[C@H](C(=O)N(CC#Cc3cccc(OC(C)C)n3)c3ccc(F)c(C)c3)CCS2(=O)=O)n1` [Example 88, (S)-N-(4-fluoro-3-methylphenyl)-N-(3-(6-isopropoxypyridin-2-yl)prop-2-yn-1-yl)-2-(6-methyl-4-(trifluoromethyl)pyridin-2-yl)isothiazolidine-3-carboxamide 1,1-dioxide] registered an IC50 of 1100 to 5000 nM.

Turning to `Cc1cc(C(F)(F)F)cc(N2[C@H](C(=O)N(CC#Cc3cccc(OC(F)F)n3)c3ccc(F)c(C)c3)CCS2(=O)=O)n1` [Example 89, (S)-N-(3-(6-(difluoromethoxy)pyridin-2-yl)prop-2-yn-1-yl)-N-(4-fluoro-3-methylphenyl)-2-(6-methyl-4-(trifluoromethyl)pyridin-2-yl)isothiazolidine-3-carboxamide 1,1-dioxide], the IC50 lay in the range of 1100 to 5000 nM.

In turn, `Cc1cc(C(F)(F)F)cc(N2[C@H](C(=O)N(CC#Cc3cc(C)c(F)c(C)n3)c3ccc(F)c(C)c3)CCS2(=O)=O)n1` [Example 90, (S)-N-(4-fluoro-3-methylphenyl)-N-(3-(5-fluoro-4,6-dimethylpyridin-2-yl)prop-2-yn-1-yl)-2-(6-methyl-4-(trifluoromethyl)pyridin-2-yl)isothiazolidine-3-carboxamide 1,1-dioxide] showed an IC50 of 1100 to 5000 nM.

Consider `Cc1cc(C(F)(F)F)cc(N2[C@H](C(=O)N(CC#Cc3cc(C)c(N)c(C)n3)c3ccc(F)c(C)c3)CCS2(=O)=O)n1` [Example 91, (S)-N-(3-(5-amino-4,6-dimethylpyridin-2-yl)prop-2-yn-1-yl)-N-(4-fluoro-3-methylphenyl)-2-(6-methyl-4-(trifluoromethyl)pyridin-2-yl)isothiazolidine-3-carboxamide 1,1-dioxide], for which the IC50 lay in the range of 1100 to 5000 nM.

The compound `Cc1cc(C(F)(F)F)cc(N2[C@H](C(=O)N(CC#Cc3cccc(=O)n3C)c3ccc(F)c(C)c3)CCS2(=O)=O)n1` [Example 92, (S)-N-(4-fluoro-3-methylphenyl)-2-(6-methyl-4-(trifluoromethyl)pyridin-2-yl)-N-(3-(1-methyl-6-oxo-1,6-dihydropyridin-2-yl)prop-2-yn-1-yl)isothiazolidine-3-carboxamide 1,1-dioxide] registered an IC50 of less than 1000 nM.

Consider `Cc1cc(C(F)(F)F)cc(N2[C@H](C(=O)N(CC#Cc3ccc(F)cn3)c3ccc(F)c(C)c3)CCS2(=O)=O)n1` [Example 93, (S)-N-(4-fluoro-3-methylphenyl)-N-(3-(5-fluoropyridin-2-yl)prop-2-yn-1-yl)-2-(6-methyl-4-(trifluoromethyl)pyridin-2-yl)isothiazolidine-3-carboxamide 1,1-dioxide], for which the IC50 was less than 1000 nM.

`Cc1cc(C(F)(F)F)cc(N2[C@H](C(=O)N(CC#Cc3ccc(F)c(C(C)C)n3)c3ccc(F)c(C)c3)CCS2(=O)=O)n1` [Example 94, (S)-N-(4-fluoro-3-methylphenyl)-N-(3-(5-fluoro-6-isopropylpyridin-2-yl)prop-2-yn-1-yl)-2-(6-methyl-4-(trifluoromethyl)pyridin-2-yl)isothiazolidine-3-carboxamide 1,1-dioxide] displayed an IC50 of 1100 to 5000 nM.

Consider `Cc1cc(C(F)(F)F)cc(N2[C@H](C(=O)N(CC#Cc3ccc(C(N)=O)nc3)c3ccc(F)c(C)c3)CCS2(=O)=O)n1` [Example 95, (S)-N-(3-(6-carbamoylpyridin-3-yl)prop-2-yn-1-yl)-N-(4-fluoro-3-methylphenyl)-2-(6-methyl-4-(trifluoromethyl)pyridin-2-yl)isothiazolidine-3-carboxamide 1,1-dioxide], for which the IC50 is less than 1000 nM.

For the origin of these results see US20260297083A1, “SUBSTITUTED ACETYLENE COMPOUND DERIVATIVES AND THEIR PHARMACEUTICAL USE” (AVELOS THERAPEUTICS INC., priority 2023, published 2026).
